Values quoted from earlier work in patent US20090093547A1, “Compositions and Methods for Treating Premature Ejaculation” (Sciele Pharma, Inc., priority 2007, published 2009).
Where a name gives a salt, the structure may show the parent alone.

Conditions: hydrochloride salt crystallized from ethanol and isopropyl ether

solubility in water: readily soluble
Structure (SMILES): CCCNC(C)C(=O)Nc1ccccc1C (stereo not shown) [Prilocalne hydrochloride salt, Prilocalne]
